# How the values were obtained:
# [1] = Dissolution of the example 7 composition in media of different pH (Basket/100 RPM/900 ml); assay type: physicochemical; conditions: 0.1N HCl vs phosphate buffer pH 6.0 and pH 6.8
# [2] = cited from earlier work
# [3] = cited from earlier work; remark: listed apart in the source
compound,measurement,setting,value
"CN1CCN(C2=Nc3cc(Cl)ccc3Nc3ccccc32)CC1 [Clozapine, 8-chloro-11-(4-methyl-1-piperazinyl)-5H-dibenzo[b,e][1,4]diazepine]",solubility behaviour concluded from dissolution data,[1],pH dependent solubility
same,solubility in acidic pH,[2]; acidic pH,soluble in acidic pH
same,solubility in basic pH,[2]; basic pH,practically insoluble in basic pH
same,solubility in intestinal pH,[2]; intestinal pH,insoluble in intestinal pH
same,solubility in water,[2]; water,very slightly soluble in water
same,dose that reaches systemic circulation unchanged,[3]; extensive first pass metabolism,27-50%
same,"plasma half-life, mean value",[3]; wide inter-individual variation,6 ± 1.5 h

# Source: patent US11504336B2, “Extended release pharmaceutical composition of clozapine” (INTAS PHARMACEUTICALS LTD., priority 2016, dated 2022)
